Assay results published in ChEMBL document CHEMBL1141965, “Preparation of human Melanocortin-4 receptor agonist libraries: linear peptides X-Y-DPhe7-Arg8-Trp(or 2-Nal)9-Z-NH2” (Bioorg Med Chem Lett, 2005).
Non-standard residues stand in square brackets, D forms with d. Residues, ends and D or L forms follow the SMILES beside them. ξ: configuration not given here. *: point of attachment. Ac6c(4-Ph-cis-to-N) = N[C@]1(C(=O)O)CC[C@H](c2ccccc2)CC1; ξAtc(5-Br) = NC1(C(=O)O)CCc2c(Br)cccc2C1; Pentanoyl = CCCCC(=O)*

How the values were obtained:
[1] = molecular target: T1, Melanocyte-stimulating hormone receptor (Homo sapiens, UniProt Q01726); assay: Agonist activity at human MC1R at 10 uM; type: functional
Target sequence in this assay (Q01726 whole entry, looked up): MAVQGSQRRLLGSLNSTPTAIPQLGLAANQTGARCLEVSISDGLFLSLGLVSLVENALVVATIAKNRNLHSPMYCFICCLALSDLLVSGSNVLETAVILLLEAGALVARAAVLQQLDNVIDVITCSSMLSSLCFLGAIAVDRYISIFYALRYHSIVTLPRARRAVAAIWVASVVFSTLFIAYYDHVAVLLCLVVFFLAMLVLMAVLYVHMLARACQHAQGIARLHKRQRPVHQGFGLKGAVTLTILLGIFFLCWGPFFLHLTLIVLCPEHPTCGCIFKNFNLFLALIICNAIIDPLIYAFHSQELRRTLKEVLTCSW

Melanocortin receptor 4 [2] = molecular target: T2, Melanocortin receptor 4 (Homo sapiens, UniProt P32245); assay: Agonist activity at human MC4R at 100 nM; type: functional
T2 sequence (P32245 whole entry): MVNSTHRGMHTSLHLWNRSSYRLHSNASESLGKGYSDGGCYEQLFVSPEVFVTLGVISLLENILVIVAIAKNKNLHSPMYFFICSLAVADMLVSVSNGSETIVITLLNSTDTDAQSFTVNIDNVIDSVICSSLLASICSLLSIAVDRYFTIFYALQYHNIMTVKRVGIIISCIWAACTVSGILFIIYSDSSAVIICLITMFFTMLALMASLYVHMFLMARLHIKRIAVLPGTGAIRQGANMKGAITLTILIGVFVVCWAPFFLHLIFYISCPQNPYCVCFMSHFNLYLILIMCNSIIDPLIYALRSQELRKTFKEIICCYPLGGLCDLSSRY

[3] = molecular target: T1, Melanocyte-stimulating hormone receptor; assay: Agonist activity at human MC1R at 50 uM; type: functional
Target sequence in this assay (Q01726 whole entry, looked up): as the sequence (Q01726 whole entry, looked up) above

Melanocortin receptor 4 [4] = molecular target: T2, Melanocortin receptor 4; assay: Agonist activity in HEK293 cells transfected with human MC4R by cAMP accumulation; type: functional, cell-based
[5] = molecular target: T1, Melanocyte-stimulating hormone receptor; assay: Agonist activity in HEK293 cells transfected with human MC1R by cAMP accumulation; type: functional, cell-based
Target sequence in this assay (Q01726 whole entry): as the sequence (Q01726 whole entry, looked up) above

[6] = molecular target: T1, Melanocyte-stimulating hormone receptor; assay: Agonist activity at human MC1R at 100 nM; type: functional
Target sequence in this assay (Q01726 whole entry, looked up): as above

SMILES	Activity [1]	EC50 (Melanocortin receptor 4 [4])	also measured
CCCC(=O)N[C@]1(C(=O)N[C@H](Cc2ccccc2)C(=O)N[C@@H](CCCN=C(N)N)C(=O)NC(Cc2ccc3ccccc3c2)C(=O)NCc2cccc(C(N)=O)c2)CC[C@H](c2ccccc2)CC1 (some centres undefined)	25%	–	Activity (Melanocortin receptor 4 [2]): > 30%
CCCC(=O)NC1(C(=O)N[C@H](Cc2ccccc2)C(=O)N[C@@H](CCCN=C(N)N)C(=O)NC(Cc2ccc3ccccc3c2)C(=O)Nc2ccccc2C(N)=O)CCc2c(Br)cccc2C1 (some centres undefined)	–	–	Activity [3]: 60%; Activity (Melanocortin receptor 4 [2]): > 30%
CCCC(=O)N[C@]1(C(=O)N[C@H](Cc2ccccc2)C(=O)N[C@@H](CCCN=C(N)N)C(=O)N[C@@H](Cc2ccc3ccccc3c2)C(=O)NCc2cccc(C(N)=O)c2)CC[C@H](c2ccccc2)CC1	–	110 nM	–
CCCCC(=O)NC1(C(=O)N[C@H](Cc2ccccc2)C(=O)N[C@@H](CCCN=C(N)N)C(=O)N[C@@H](Cc2ccc3ccccc3c2)C(=O)NCC(N)=O)CCc2c(Br)cccc2C1 (some centres undefined)	–	200 nM	EC50 [5]: 2900 nM
CCCC(=O)N[C@]1(C(=O)N[C@H](Cc2ccccc2)C(=O)N[C@@H](CCCN=C(N)N)C(=O)N[C@@H](Cc2c[nH]c3ccccc23)C(=O)Nc2ccccc2C(N)=O)CC[C@H](c2ccccc2)CC1	60%	2 nM	–
CCCCC(=O)NC1(C(=O)N[C@H](Cc2ccccc2)C(=O)N[C@@H](CCCN=C(N)N)C(=O)N[C@@H](Cc2c[nH]c3ccccc23)C(=O)NCC(N)=O)CCc2c(Br)cccc2C1 (some centres undefined) (Pentanoyl-[ξAtc(5-Br)][dF]RWG-NH2)	–	–	Activity [3]: 50%
CCCC(=O)N[C@]1(C(=O)N[C@H](Cc2ccccc2)C(=O)N[C@@H](CCCN=C(N)N)C(=O)N[C@@H](Cc2c[nH]c3ccccc23)C(=O)NCc2cccc(C(N)=O)c2)CC[C@H](c2ccccc2)CC1	–	2 nM	Activity [3]: 50%
CCCC(=O)NC1(C(=O)N[C@H](Cc2ccccc2)C(=O)N[C@@H](CCCN=C(N)N)C(=O)NC(Cc2ccc3ccccc3c2)C(=O)NCCC(N)=O)CCc2c(Br)cccc2C1 (some centres undefined)	–	–	Activity (Melanocortin receptor 4 [2]): 32%; Activity [6]: 40%
CCCC(=O)N[C@]1(C(=O)N[C@H](Cc2ccccc2)C(=O)N[C@@H](CCCN=C(N)N)C(=O)NC(Cc2ccc3ccccc3c2)C(=O)NCc2ccc(C(N)=O)cc2)CC[C@H](c2ccccc2)CC1 (some centres undefined)	–	–	Activity [3]: 15%; Activity (Melanocortin receptor 4 [2]): > 30%
CCCC(=O)N[C@]1(C(=O)N[C@H](Cc2ccccc2)C(=O)N[C@@H](CCCN=C(N)N)C(=O)NC(Cc2ccc3ccccc3c2)C(=O)NCCC(N)=O)CC[C@H](c2ccccc2)CC1 (some centres undefined)	25%	–	Activity (Melanocortin receptor 4 [2]): > 30%
N=C(N)NCCC[C@H](NC(=O)[C@@H](Cc1ccccc1)NC(=O)C1(NC(=O)Cc2ccccc2)CCc2c(Br)cccc2C1)C(=O)N[C@@H](Cc1c[nH]c2ccccc12)C(=O)Nc1ccccc1C(N)=O (some centres undefined)	50%	11 nM	–
CCCC(=O)NC1(C(=O)N[C@H](Cc2ccccc2)C(=O)N[C@@H](CCCN=C(N)N)C(=O)NC(Cc2ccc3ccccc3c2)C(=O)NCC(N)=O)CCc2c(Br)cccc2C1 (some centres undefined)	–	–	Activity (Melanocortin receptor 4 [2]): 30%; Activity [6]: 26%
CCCC(=O)N[C@]1(C(=O)N[C@H](Cc2ccccc2)C(=O)N[C@@H](CCCN=C(N)N)C(=O)N[C@@H](Cc2ccc3ccccc3c2)C(=O)NCCC(N)=O)CC[C@H](c2ccccc2)CC1	–	90 nM	–
CCCCC(=O)N[C@]1(C(=O)N[C@H](Cc2ccccc2)C(=O)N[C@@H](CCCN=C(N)N)C(=O)N[C@@H](Cc2c[nH]c3ccccc23)C(=O)NCC(N)=O)CC[C@H](c2ccccc2)CC1 (Pentanoyl-[Ac6c(4-Ph-cis-to-N)][dF]RWG-NH2)	–	–	Activity [3]: 25%
CCCC(=O)N[C@]1(C(=O)N[C@H](Cc2ccccc2)C(=O)N[C@@H](CCCN=C(N)N)C(=O)N[C@@H](Cc2ccc3ccccc3c2)C(=O)NCC(N)=O)CC[C@H](c2ccccc2)CC1	25%	44 nM	Activity (Melanocortin receptor 4 [2]): > 30%
CCCC(=O)N[C@]1(C(=O)N[C@H](Cc2ccccc2)C(=O)N[C@@H](CCCN=C(N)N)C(=O)N[C@@H](Cc2ccc3ccccc3c2)C(=O)Nc2ccccc2C(N)=O)CC[C@H](c2ccccc2)CC1	–	39 nM	–
CCCC(=O)N[C@]1(C(=O)N[C@H](Cc2ccccc2)C(=O)N[C@@H](CCCN=C(N)N)C(=O)N[C@@H](Cc2ccc3ccccc3c2)C(=O)NCc2ccc(C(N)=O)cc2)CC[C@H](c2ccccc2)CC1	–	85 nM	–
CCCCC(=O)N[C@]1(C(=O)N[C@H](Cc2ccccc2)C(=O)N[C@@H](CCCN=C(N)N)C(=O)NC(Cc2ccc3ccccc3c2)C(=O)NCC(N)=O)CC[C@H](c2ccccc2)CC1 (some centres undefined)	–	–	Activity [3]: 60%
CCCCNC(=O)N[C@]1(C(=O)N[C@H](Cc2ccccc2)C(=O)N[C@@H](CCCN=C(N)N)C(=O)N[C@@H](Cc2c[nH]c3ccccc23)C(=O)NCc2cccc(C(N)=O)c2)CC[C@H](c2ccccc2)CC1	60%	2 nM	–
CCCCNC(=O)N[C@]1(C(=O)N[C@H](Cc2ccccc2)C(=O)N[C@@H](CCCN=C(N)N)C(=O)N[C@@H](Cc2c[nH]c3ccccc23)C(=O)N[C@@H](C)C(N)=O)CC[C@H](c2ccccc2)CC1	–	2 nM	Activity [3]: 25%
CCCCNC(=O)N[C@]1(C(=O)N[C@H](Cc2ccccc2)C(=O)N[C@@H](CCCN=C(N)N)C(=O)N[C@@H](Cc2c[nH]c3ccccc23)C(=O)NCCC(N)=O)CC[C@H](c2ccccc2)CC1	–	2 nM	Activity [3]: 50%
CCCCNC(=O)N[C@]1(C(=O)N[C@H](Cc2ccccc2)C(=O)N[C@@H](CCCN=C(N)N)C(=O)N[C@@H](Cc2c[nH]c3ccccc23)C(=O)NCC(N)=O)CC[C@H](c2ccccc2)CC1	55%	2 nM	–
NC(=O)CCNC(=O)[C@H](Cc1c[nH]c2ccccc12)NC(=O)[C@H](CCCN=C(N)N)NC(=O)[C@@H](Cc1ccccc1)NC(=O)[C@]1(NC(=O)Cc2ccccc2)CC[C@@H](c2ccccc2)CC1	45%	5 nM	–
CCCC(=O)N[C@]1(C(=O)N[C@H](Cc2ccccc2)C(=O)N[C@@H](CCCN=C(N)N)C(=O)N[C@@H](Cc2c[nH]c3ccccc23)C(=O)N[C@@H](C)C(N)=O)CC[C@H](c2ccccc2)CC1	–	3 nM	Activity [3]: 25%

Now from value to compound, other results behind:

Activity [1]	EC50 (Melanocortin receptor 4 [4])	SMILES	also measured
30%	2 nM	NC(=O)CNC(=O)[C@H](Cc1c[nH]c2ccccc12)NC(=O)[C@H](CCCN=C(N)N)NC(=O)[C@@H](Cc1ccccc1)NC(=O)[C@]1(NC(=O)Cc2ccccc2)CC[C@@H](c2ccccc2)CC1	–
75%	3 nM	N=C(N)NCCC[C@H](NC(=O)[C@@H](Cc1ccccc1)NC(=O)[C@]1(NC(=O)Cc2ccccc2)CC[C@@H](c2ccccc2)CC1)C(=O)N[C@@H](Cc1c[nH]c2ccccc12)C(=O)Nc1ccccc1C(N)=O	–
–	72 nM	CCCC(=O)NC1(C(=O)N[C@H](Cc2ccccc2)C(=O)N[C@@H](CCCN=C(N)N)C(=O)N[C@@H](Cc2ccc3ccccc3c2)C(=O)Nc2ccccc2C(N)=O)CCc2c(Br)cccc2C1 (some centres undefined)	–
25%	–	CCCC(=O)N[C@]1(C(=O)N[C@H](Cc2ccccc2)C(=O)N[C@@H](CCCN=C(N)N)C(=O)NC(Cc2ccc3ccccc3c2)C(=O)N[C@@H](C)C(N)=O)CC[C@H](c2ccccc2)CC1 (some centres undefined)	EC50 (Melanocortin receptor 4 [4]; hek293): 220 nM; Activity (Melanocortin receptor 4 [2]): > 30%
50%	–	CCCC(=O)N[C@]1(C(=O)N[C@H](Cc2ccccc2)C(=O)N[C@@H](CCCN=C(N)N)C(=O)NC(Cc2ccc3ccccc3c2)C(=O)Nc2ccccc2C(N)=O)CC[C@H](c2ccccc2)CC1 (some centres undefined)	Activity (Melanocortin receptor 4 [2]): > 30%
–	5 nM	CCCC(=O)N[C@]1(C(=O)N[C@H](Cc2ccccc2)C(=O)N[C@@H](CCCN=C(N)N)C(=O)N[C@@H](Cc2c[nH]c3ccccc23)C(=O)NCCC(N)=O)CC[C@H](c2ccccc2)CC1	Activity [3]: 50%
60%	2 nM	N=C(N)NCCC[C@H](NC(=O)[C@@H](Cc1ccccc1)NC(=O)[C@]1(NC(=O)Cc2ccccc2)CC[C@@H](c2ccccc2)CC1)C(=O)N[C@@H](Cc1c[nH]c2ccccc12)C(=O)NCc1cccc(C(N)=O)c1	–
–	15 nM	CCCC(=O)NC1(C(=O)N[C@H](Cc2ccccc2)C(=O)N[C@@H](CCCN=C(N)N)C(=O)N[C@@H](Cc2c[nH]c3ccccc23)C(=O)Nc2ccccc2C(N)=O)CCc2c(Br)cccc2C1 (some centres undefined)	Activity [3]: 65%
50%	15 nM	CCCCNC(=O)NC1(C(=O)N[C@H](Cc2ccccc2)C(=O)N[C@@H](CCCN=C(N)N)C(=O)N[C@@H](Cc2c[nH]c3ccccc23)C(=O)Nc2ccccc2C(N)=O)CCc2c(Br)cccc2C1 (some centres undefined)	–
70%	1 nM	N=C(N)NCCC[C@H](NC(=O)[C@@H](Cc1ccccc1)NC(=O)[C@]1(NC(=O)Cc2ccccc2)CC[C@@H](c2ccccc2)CC1)C(=O)N[C@@H](Cc1c[nH]c2ccccc12)C(=O)NCc1ccc(C(N)=O)cc1	–
50%	1 nM	CCCC(=O)N[C@]1(C(=O)N[C@H](Cc2ccccc2)C(=O)N[C@@H](CCCN=C(N)N)C(=O)N[C@@H](Cc2c[nH]c3ccccc23)C(=O)NCc2ccc(C(N)=O)cc2)CC[C@H](c2ccccc2)CC1	–
–	50 nM	CCCCC(=O)N[C@]1(C(=O)N[C@H](Cc2ccccc2)C(=O)N[C@@H](CCCN=C(N)N)C(=O)N[C@@H](Cc2ccc3ccccc3c2)C(=O)NCC(N)=O)CC[C@H](c2ccccc2)CC1	–
30%	3 nM	C[C@H](NC(=O)[C@H](Cc1c[nH]c2ccccc12)NC(=O)[C@H](CCCN=C(N)N)NC(=O)[C@@H](Cc1ccccc1)NC(=O)[C@]1(NC(=O)Cc2ccccc2)CC[C@@H](c2ccccc2)CC1)C(N)=O	–
75%	2 nM	CCCCNC(=O)N[C@]1(C(=O)N[C@H](Cc2ccccc2)C(=O)N[C@@H](CCCN=C(N)N)C(=O)N[C@@H](Cc2c[nH]c3ccccc23)C(=O)Nc2ccccc2C(N)=O)CC[C@H](c2ccccc2)CC1	–
